Measurements as given in patent publication EP1561465A2, “Methods of use of fluoroquinolone compounds against bacteria” (LG Life Sciences, Ltd., priority 1999, dated 2001).
Converted amounts (≈) assume the structure as drawn. Values belong to the compound of their own block, whether it stands above or below them.

Tests used:
Yersinia enterocolitica = assay: MIC by agar dilution (NCCLS M7-A4), 288 enteropathogenic isolates, gemifloxacin and 15 other antimicrobials; type: cell-based; conditions: 24 h; Yersinia enterocolitica N= 22; read-out: MIC (mg/L) Range
Escherichia coli = assay: MIC by agar dilution (NCCLS), 322 nosocomial Gram negative isolates, Athens 1998; type: cell-based; conditions: n = 57 isolates; for MIC50 / MIC90: Escherichia coli
Moraxella catarrhalis [1] = assay: MIC by NCCLS reference broth microdilution, 450 respiratory tract pathogens; type: cell-based
Streptococcus pneumoniae [2] = assay: as above; type: cell-based; conditions: Streptococcus pneumoniae
Salmonella spp. = assay: MIC by agar dilution (NCCLS M7-A4), 288 enteropathogenic isolates, gemifloxacin and 15 other antimicrobials; type: cell-based; conditions: Salmonella spp. N= 106
Aeromonas spp. = assay: as above; type: cell-based; conditions: Aeromonas spp. N= 16
Streptococcus pyogenes = assay: MIC by NCCLS reference broth microdilution, 450 respiratory tract pathogens; type: cell-based; conditions: Streptococcus pyogenes
Streptococcus pneumoniae [3] = assay: MIC by two-fold serial agar dilution, Sensitivity Disk agar-N (Kitasato isolates); type: cell-based; conditions: Streptococcus pneumoniae; for MIC: 18 h, read-out: MIC Range
Haemophilus influenzae [4] = assay: as above; type: cell-based; conditions: Haemophilus influenzae (24)
Klebsiella pneumoniae [5] = assay: MIC by NCCLS reference broth microdilution, 450 respiratory tract pathogens; type: cell-based
P. aeruginosa = assay: MIC by two-fold serial agar dilution, quinolone-resistant strains; type: cell-based; conditions: Pseudomonas aeruginosa
Enterobacter spp. = assay: MIC by agar dilution (NCCLS), 322 nosocomial Gram negative isolates, Athens 1998; type: cell-based; conditions: n = 57 isolates; for MIC50 / MIC90: Enterobacter; for MIC50: read-out: MIC50; for MIC90: read-out: MIC90
Klebsiella pneumoniae [6] = assay: as above; type: cell-based; conditions: n = 56 isolates; for MIC50 / MIC90: Klebsiella pneumoniae
Moraxella catarrhalis [7] = assay: MIC by two-fold serial agar dilution, Sensitivity Disk agar-N (Kitasato isolates); type: cell-based; conditions: Moraxella catarrhalis (22)
Pseudomonas aeruginosa = assay: MIC by agar dilution (NCCLS), 322 nosocomial Gram negative isolates, Athens 1998; type: cell-based; conditions: n = 57 isolates
Staphylococcus aureus = assay: MIC by NCCLS reference broth microdilution, 450 respiratory tract pathogens; type: cell-based
Acinetobacter spp. = assay: MIC by agar dilution (NCCLS), 322 nosocomial Gram negative isolates, Athens 1998; type: cell-based; conditions: n = 38 strains; for MIC90 / MIC50: Acinetobacter
Proteus mirabilis = assay: as above; type: cell-based; conditions: n = 57 isolates; for MIC50 / MIC90: Proteus mirabilis
Campylobacter jejuni = assay: MIC by agar dilution (NCCLS M7-A4), 288 enteropathogenic isolates, gemifloxacin and 15 other antimicrobials; conditions: Campylobacter jejuni N= 91
Haemophilus influenzae [8] = assay: MIC by NCCLS reference broth microdilution, 450 respiratory tract pathogens; type: cell-based; conditions: for MIC / MIC50: Haemophilus influenzae
E. coli = assay: microbe, parasite or virus in culture; type: cell-based; conditions: Escherichia coli
[9] = Streptococcus pyogenes (n = 100)
[10] = erythromycin resistant I phenotype [MLSB] (n = 20)
[11] = erythromycin resistant M phenotype (n = 20)
[12] = Klebsiella pneumoniae, Klebsiella pneumoniae (n = 50)
[13] = Haemophilus influenzae (n = 100)

Compound: O=C(O)c1cn(C2CC2)c2cc(N3CCNCC3)c(F)cc2c1=O [Ciprofloxacin, ciprofloxacin]
MIC (Yersinia enterocolitica): 0.015 to 0.25 mg/L (≈ 0.0453 to 0.754 µM)
MIC50 (Escherichia coli): ≤ 0.03 µg/mL
MIC Range (Escherichia coli): ≤0.03 to 64 µg/mL
MIC (Moraxella catarrhalis [1]; Moraxella catarrhalis (n = 50)): 0.00375 to 0.06 µg/mL (≈ 0.0113 to 0.181 µM)
MIC50 (Moraxella catarrhalis [1]; Moraxella catarrhalis (n = 50)): 0.03 µg/mL (≈ 0.0905 µM)
MIC (Moraxella catarrhalis [1]; β-lactamase negative (n = 13)): 0.00375 to 0.03 µg/mL (≈ 0.0113 to 0.0905 µM)
MIC50 (Moraxella catarrhalis [1]; β-lactamase negative (n = 13)): 0.015 µg/mL (≈ 0.0453 µM)
MIC (Moraxella catarrhalis [1]; β-lactamase positive (n = 37)): 0.00375 to 0.06 µg/mL (≈ 0.0113 to 0.181 µM)
MIC50 (Moraxella catarrhalis [1]; β-lactamase positive (n = 37)): 0.03 µg/mL (≈ 0.0905 µM)
MIC (Streptococcus pneumoniae [2]; Streptococcus pneumoniae (n = 100)): 0.06 to 4 µg/mL (≈ 0.181 to 12.1 µM)
MIC (Streptococcus pneumoniae [2]; multi-drug resistant (n = 16)): 0.5 to 4 µg/mL (≈ 1.51 to 12.1 µM)
MIC (Streptococcus pneumoniae [2]; penicillin intermediate (n = 16)): 0.5 to 2 µg/mL (≈ 1.51 to 6.04 µM)
MIC (Streptococcus pneumoniae [2]; penicillin resistant (n = 18)): 0.5 to 8 µg/mL (≈ 1.51 to 24.1 µM)
MIC50 (Streptococcus pneumoniae [2]; penicillin resistant (n = 18)): 0.5 µg/mL (≈ 1.51 µM)
MIC90 (Streptococcus pneumoniae [2]; penicillin resistant (n = 18)): 8 µg/mL (≈ 24.1 µM)
MIC (Streptococcus pneumoniae [2]; penicillin susceptible (n = 20)): 0.06 to 2 µg/mL (≈ 0.181 to 6.04 µM)
MIC (mg/L) Range (Salmonella spp.): ≤0.015 to 1 mg/L
MIC (mg/L) Range (Aeromonas spp.): ≤0.015 to 0.06 mg/L
MIC (Streptococcus pyogenes; [9]): 0.12 to 2 µg/mL (≈ 0.362 to 6.04 µM)
MIC90 (Streptococcus pyogenes; [9]): 0.5 µg/mL (≈ 1.51 µM)
MIC (Streptococcus pyogenes; erythromycin resistant C phenotype [MLSB] (n = 20)): 0.25 to 0.5 µg/mL (≈ 0.754 to 1.51 µM)
MIC (Streptococcus pyogenes; [10]): 0.12 to 2 µg/mL (≈ 0.362 to 6.04 µM)
MIC90 (Streptococcus pyogenes; [10]): 0.5 µg/mL (≈ 1.51 µM)
MIC (Streptococcus pyogenes; [11]): 0.12 to 0.5 µg/mL (≈ 0.362 to 1.51 µM)
MIC90 (Streptococcus pyogenes; [11]): 0.5 µg/mL (≈ 1.51 µM)
MIC (Streptococcus pyogenes; fully susceptible (n = 20)): 0.12 to 2 µg/mL (≈ 0.362 to 6.04 µM)
MIC90 (Streptococcus pyogenes; fully susceptible (n = 20)): 0.5 µg/mL (≈ 1.51 µM)
MIC (Streptococcus pyogenes; multi-drug resistant (n = 20)): 0.25 to 1 µg/mL (≈ 0.754 to 3.02 µM)
MIC90 (Streptococcus pyogenes; multi-drug resistant (n = 20)): 0.5 µg/mL (≈ 1.51 µM)
MIC (Streptococcus pneumoniae [3]; Ciprofloxacin-resistant (21)): 8 to 128 µg/mL (≈ 24.1 to 386 µM)
MIC (Streptococcus pneumoniae [3]; Ciprofloxacin-susceptible (94)): 0.25 to 4 µg/mL (≈ 0.754 to 12.1 µM)
MIC (Streptococcus pneumoniae [3]; Erythromycin-resistant (37)): 0.5 to 64 µg/mL (≈ 1.51 to 193 µM)
MIC (Streptococcus pneumoniae [3]; Minocycline-resistant (37)): 0.25 to 64 µg/mL (≈ 0.754 to 193 µM)
MIC (Streptococcus pneumoniae [3]; Penicillin-resistant (19)): 0.5 to 8 µg/mL (≈ 1.51 to 24.1 µM)
MIC50 (Streptococcus pneumoniae [3]; Penicillin-resistant (19), read-out: MIC50): 0.5 µg/mL (≈ 1.51 µM)
MIC Range (Haemophilus influenzae [4]): 0.008 to 0.031 µg/mL
MIC Range (Klebsiella pneumoniae [5]; Klebsiella pneumoniae (n = 50)): ≤0.0075 to 1 µg/mL
MIC50 (Klebsiella pneumoniae [5]; [12]): 0.12 µg/mL (≈ 0.362 µM)
MIC90 (Klebsiella pneumoniae [5]; [12]): 0.5 µg/mL (≈ 1.51 µM)
MIC90 (Klebsiella pneumoniae [5]; Klebsiella pneumoniae, extended spectrum β-lactamase negative (n = 30)): 0.03 µg/mL (≈ 0.0905 µM)
MIC90 (Klebsiella pneumoniae [5]; Klebsiella pneumoniae, extended spectrum β-lactamase positive (n = 20)): 0.5 µg/mL (≈ 1.51 µM)
MIC Range (Klebsiella pneumoniae [5]; extended spectrum β-lactamase negative (n = 30)): ≤0.0075 to 0.12 µg/mL
MIC Range (Klebsiella pneumoniae [5]; extended spectrum β-lactamase positive (n = 20)): 0.015 to 0.5 µg/mL
MIC (P. aeruginosa): 1 µg/mL (≈ 3.02 µM)
MIC50 (Enterobacter spp.): ≤ 0.03 µg/mL
MIC50 (Klebsiella pneumoniae [6]): ≤ 0.03 µg/mL
MIC90 (Klebsiella pneumoniae [6]): 0.5 µg/mL (≈ 1.51 µM)
MIC Range (Klebsiella pneumoniae [6]): ≤0.03 to 8 µg/mL
MIC50 (Moraxella catarrhalis [7]): 0.031 µg/mL (≈ 0.0936 µM)
MIC Range (Moraxella catarrhalis [7]): 0.031 to 0.063 µg/mL
MIC50 (Pseudomonas aeruginosa): 0.5 µg/mL (≈ 1.51 µM)
MIC (Staphylococcus aureus; Staphylococcus aureus (n = 50)): 0.06 to 4 µg/mL (≈ 0.181 to 12.1 µM)
MIC50 (Staphylococcus aureus; Staphylococcus aureus (n = 50)): 2 µg/mL (≈ 6.04 µM)
MIC (Staphylococcus aureus; β-lactamase negative (n = 20)): 0.06 to 4 µg/mL (≈ 0.181 to 12.1 µM)
MIC50 (Staphylococcus aureus; β-lactamase negative (n = 20)): 2 µg/mL (≈ 6.04 µM)
MIC90 (Acinetobacter spp.): > 64 µg/mL
MIC50 (Proteus mirabilis): 0.06 µg/mL (≈ 0.181 µM)
MIC (mg/L) Range (Campylobacter jejuni): 0.06 to 128 mg/L
MIC90 (Haemophilus influenzae [8]; [13]): 0.015 µg/mL (≈ 0.0453 µM)
MIC (Haemophilus influenzae [8]; [13]): 0.0075 to 0.5 µg/mL (≈ 0.0226 to 1.51 µM)
MIC50 (Haemophilus influenzae [8]; [13]): ≤ 0.00075 µg/mL
MIC (Haemophilus influenzae [8]; β-lactamase negative (n = 80)): 0.0075 to 0.5 µg/mL (≈ 0.0226 to 1.51 µM)
MIC50 (Haemophilus influenzae [8]; β-lactamase negative (n = 80)): ≤ 0.0075 µg/mL
MIC (Haemophilus influenzae [8]; β-lactamase positive (n = 20)): 0.0075 to 0.015 µg/mL (≈ 0.0226 to 0.0453 µM)
MIC50 (Haemophilus influenzae [8]; β-lactamase positive (n = 20)): ≤ 0.0075 µg/mL
MIC (E. coli; E. coli KU1030, mutant type SP): 0.063 µg/mL (≈ 0.19 µM)
MIC (E. coli; E. coli KU1036, mutant type GB (DNA gyrase B)): 0.063 µg/mL (≈ 0.19 µM)
MIC (E. coli; E. coli KU1038, mutant type SP): 0.063 µg/mL (≈ 0.19 µM)
MIC (E. coli; E. coli KU1042, mutant type SP): 0.063 µg/mL (≈ 0.19 µM)

MIC50 (Escherichia coli): ≤ 0.03 µg/mL
MIC90 (Escherichia coli): ≤ 0.03 µg/mL
MIC50 (Enterobacter spp.): 0.06 µg/mL (≈ 0.156 µM)
MIC90 (Enterobacter spp.): 4 µg/mL (≈ 10.4 µM)
MIC Range (Enterobacter spp.): ≤0.03 to 16 µg/mL
MIC50 (Klebsiella pneumoniae [6]): 0.03 µg/mL (≈ 0.0782 µM)
MIC90 (Klebsiella pneumoniae [6]): 0.06 µg/mL (≈ 0.156 µM)
MIC Range (Klebsiella pneumoniae [6]): ≤0.03 to 2 µg/mL
MIC50 (Pseudomonas aeruginosa): 1 µg/mL (≈ 2.61 µM)
MIC90 (Pseudomonas aeruginosa): 16 µg/mL (≈ 41.7 µM)
MIC50 (Acinetobacter spp.): 2 µg/mL (≈ 5.22 µM)
MIC90 (Acinetobacter spp.): 8 µg/mL (≈ 20.9 µM)
MIC Range (Acinetobacter spp.): 0.06 to 16 µg/mL
MIC50 (Proteus mirabilis): 0.03 µg/mL (≈ 0.0782 µM)
MIC90 (Proteus mirabilis): 0.25 µg/mL (≈ 0.652 µM)
MIC Range (Proteus mirabilis): ≤0.03 to 4 µg/mL
Compound: C[C@@H](O)[C@H]1C(=O)N2C(C(=O)O)=C(S[C@@H]3CN[C@H](C(=O)N(C)C)C3)[C@H](C)[C@H]12 [Meropenem]

MIC50 (Escherichia coli): 4 µg/mL (≈ 7.73 µM)
MIC90 (Escherichia coli): 64 µg/mL (≈ 124 µM)
MIC50 (Enterobacter spp.): 16 µg/mL (≈ 30.9 µM)
MIC90 (Enterobacter spp.): > 64 µg/mL
MIC50 (Klebsiella pneumoniae [6]): 32 µg/mL (≈ 61.8 µM)
MIC90 (Klebsiella pneumoniae [6]): > 64 µg/mL
MIC50 (Pseudomonas aeruginosa): 8 µg/mL (≈ 15.5 µM)
MIC90 (Pseudomonas aeruginosa): > 64 µg/mL
MIC50 (Acinetobacter spp.): > 64 µg/mL
MIC90 (Acinetobacter spp.): > 64 µg/mL
MIC50 (Proteus mirabilis): 1 µg/mL (≈ 1.93 µM)
MIC90 (Proteus mirabilis): > 64 µg/mL
Compound: CCN1CCN(C(=O)N[C@@H](C(=O)N[C@@H]2C(=O)N3[C@@H]2SC(C)(C)[C@@H]3C(=O)O)c2ccccc2)C(=O)C1=O [Piperacillin]
